Results: PubChem BioAssay AID179 (DTP/NCI, 2004)
Active and inactive are the calls of the source.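 Rule for the calls: active = compounds giving half or more protection of infected cells from virus-caused growth loss, again on retest; inactive = the rest.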

Test system: CEM cells HIV-1 protection, formazan growth assay
Assay: NCI AIDS Antiviral Assay
Conditions: for IC50: measured here: growth of uninfected CEM cells
Summary of the method: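 Screen of anti-HIV-1 activity in human CEM cells using a formazan-based growth measurement at five drug concentrations. Hits with 50% or greater protection were repeated, and confirmation required reproducible complete protection.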

In the case of `O=[N+]([O-])c1ccc(OC2CC3C4C=CC3C2C4)c([N+](=O)[O-])c1` (centres undefined), the EC50 is reported as over 200 µM and the IC50 is reported as over 200 µM.
`CS(=O)(=O)NOCCCCONS(C)(=O)=O` gave an EC50 of over 912 µM and an IC50 of over 912 µM.
For `COC1CCC(OS(C)(=O)=O)C(C)O1` (centres undefined), the EC50 was over 200 µM and the IC50 was 110 µM.
Work on `CNC(=O)N(C)C(=O)c1ccccc1C(=O)N(C)C(=O)NC` yielded an EC50 of over 200 µM and an IC50 of over 200 µM.
Compound `O=c1c(Nc2ccccc2)cn(CCOc2ccccc2)c(=O)n1CCOc1ccccc1` has an EC50 of over 200 µM and an IC50 of over 200 µM.
In the case of `CCN(CC)CCN.O=c1cccccc1[O-].O=c1cccccc1[O-].[Co+3].[O-][Cl+3]([O-])([O-])[O-]`, the EC50 is reported as over 200 µM and the IC50 is reported as 2.24 µM.
Work on `CC(=O)Nc1ccc([As](=O)(O)O)cc1NC(C)=O` yielded an EC50 of over 200 µM and an IC50 of 28.2 µM.
With `O=C(NC12CC3CCC1CC(C3)C2)[C@@H]1CCCN1C(=O)OCc1ccccc1` (some centres undefined) the outcome was “inactive”.
For `C(=C\c1ccnc2ccccc12)/c1cccnc1`, the EC50 was over 155 µM and the IC50 was 42.7 µM.
Compound `Cc1cc2nnn(C3CCCCO3)c2cc1C` (centres undefined) has an EC50 of over 200 µM and an IC50 of 174 µM.
Compound `C/C(=N\NS(=O)(=O)c1ccc(C)cc1)c1cc2ccccc2n1C` has an EC50 of over 79.4 µM and an IC50 of over 79.4 µM.
`CC/C(CC(=O)CCC(=O)Nc1ccc(C)c(C)c1)=N\NC(=O)C(N)=O` was tested, and the outcome was “inactive”.
`Cc1ccccc1Nc1ccc([N+](=O)[O-])c2nonc12` was tested, and the EC50 was over 83.2 µM and the IC50 was 33.1 µM.
`Nc1ccc(N=Nc2ccc(/C=C/c3ccc(N=Nc4ccc(N)c5ccccc45)cc3S(=O)(=O)O)c(S(=O)(=O)O)c2)c2ccccc12` was tested, and the EC50 was over 50.1 µM and the IC50 was 37.2 µM.
`O=C1C2CCN(CC2)C1CN1CCOCC1` (centres undefined) was tested, and the outcome was “inactive”.
In the case of `NC(=O)C#CC#CC#CCO`, the EC50 is reported as over 891 µM and the IC50 is reported as 0.479 µM.
With `Clc1cccc2c(N3CC3)cnnc12` the outcome was “inactive”.
In the case of `CCC1CN2CCc3cc(OC)c(OC)cc3C2CC1CC1c2cc(OC)c(OC)cc2CCN1C(=O)C1CCCN1C(=O)OCc1ccccc1` (centres undefined), the outcome is reported as “inactive”.
In the case of `O=c1[nH]c2ccc(Cl)cc2o1`, the EC50 is reported as 182 µM and the IC50 is reported as over 200 µM.
For `CC1(C)CC(=O)C2C(C1)Nc1ccccc1NC2c1cccc([N+](=O)[O-])c1` (centres undefined), the EC50 was over 200 µM and the IC50 was 93.3 µM.
With `O=C(O)c1ccccc1N=NNc1ccc(/C=C/c2ccc(N=NNc3ccccc3C(=O)O)cc2S(=O)(=O)O)c(S(=O)(=O)O)c1` the EC50 was 6.31 µM and the IC50 was 389 µM.
In the case of `CC1=Nc2ccc(C)cc2N=C(C)C1`, the EC50 is reported as over 200 µM and the IC50 is reported as over 200 µM.
With `O=S1(=O)NNC(=NCc2ccc(F)cc2)c2ccccc21` the outcome was “inactive”.
`O=c1c(SCc2ccc(Cl)cc2)c(N2CCCCC2)cnn1-c1ccccc1` showed an EC50 of over 24 µM and an IC50 of over 24 µM.
`CCSSC12CCCN1C(=O)C1CCCN1C2=O` (centres undefined) gave an EC50 of over 200 µM and an IC50 of 15.8 µM.
`NC(=O)NN=C1Cc2ccccc2C1` showed an EC50 of over 200 µM and an IC50 of over 200 µM.
`NC(=Nc1ccc(S(=O)(=O)Nc2cnc3ccccc3n2)cc1)/N=C(/N)Nc1ccc(Br)cc1` gave an EC50 of over 87.1 µM and an IC50 of over 87.1 µM.
`O=C1NCCN1/N=C/c1c(Cl)n(-c2ccccc2)c2ccccc12` was tested, and the EC50 was over 200 µM and the IC50 was 16.6 µM.
`Cn1c2ccccc2c(=O)c2c(O)cc3c(c21)C=CC1(CCCC1)O3` was tested, and the EC50 was 16.2 µM and the IC50 was over 200 µM.
`CC#N.CC#N.COC(=O)[C@H]1COC(=O)[N-]1.COC(=O)[C@H]1COC(=O)[N-]1.COC(=O)[C@H]1COC(=O)[N-]1.COC(=O)[C@H]1COC(=O)[N-]1.[Rh+2].[Rh+2]` showed an EC50 of over 200 µM and an IC50 of over 200 µM.
Work on `C[N+](C)(C)CCCS(=O)(=O)[O-]` yielded an EC50 of over 200 µM and an IC50 of over 200 µM.
`O=[N+]([O-])c1ccc(N=Cc2ccccc2O)cc1` gave an EC50 of over 200 µM and an IC50 of 8.91 µM.
`O=C1c2ccccc2-c2cccc3cccc1c23` gave an EC50 of over 16.2 µM and an IC50 of over 16.2 µM.
Compound `FC1=C2CCCCCC2SC1(F)F` (centres undefined) has an EC50 of over 200 µM and an IC50 of 32.4 µM.
With `COc1cc2c(cc1OC)C13CC(=O)N(C(C)=O)N1CCCN3C2=O` (centres undefined) the EC50 was over 145 µM and the IC50 was over 145 µM.
`Cc1noc(/N=C2\C=C(Nc3onc(C)c3C)C(=O)c3ccccc32)c1C` gave an EC50 of over 2.75 µM and an IC50 of over 2.75 µM.
`CC(C)CC(=O)N1CCN(C(=O)CC(C)C)c2ccccc21` showed an EC50 of over 603 µM and an IC50 of 589 µM.
`CN(C(=O)c1ccco1)C(=S)N1CCN(c2ccccn2)CC1` was tested, and the EC50 was over 398 µM and the IC50 was 209 µM.
`S=C1N/N=C/NN/C=N/N1` was tested, and the EC50 was over 562 µM and the IC50 was 282 µM.
`CCOC(=O)CNC(=O)C(CSSCC(NC(=O)OCc1ccccc1)C(=O)O)NC(=O)OCc1ccccc1` (centres undefined) showed an EC50 of over 200 µM and an IC50 of over 200 µM.
Compound `Cc1cc(NC(=O)NC/C(Cl)=C/Cl)c2ccccc2n1` has an EC50 of over 200 µM and an IC50 of 29.5 µM.
In the case of `O=C1/C(=C\Oc2ccc(F)cc2)N2CCC1CC2`, the EC50 is reported as over 200 µM and the IC50 is reported as 102 µM.
For `CC(=O)NNC(=S)/N=C/C(C(=O)Nc1ccccc1)=C(/C)O`, the EC50 was over 200 µM and the IC50 was over 200 µM.
`C=CCC(C(=O)Nc1cccc2[nH]cnc12)C(=O)OCC` (centres undefined) was tested, and the EC50 was over 200 µM and the IC50 was 195 µM.
For `O=[N+]([O-])c1ccc(-c2ccc(C3=Nn4c(CNc5ccccc5Cl)nnc4SC3)o2)cc1`, the EC50 was over 11.2 µM and the IC50 was over 11.2 µM.
